pIC50: −log10 of the molar value. Values after ≈ are worked out from the molar mass of the structure shown. Values joined by “and” are separate entries in the source; they are usually repeats but may differ in a detail not shown here. Equal entries are not always repeated. Where two headings read alike, the source gives them in different places.
Key:
[1] = molecular target: T1, hIDO1 (ferric-IDO1 and deoxy ferrous-IDO1) (Homo sapiens, UniProt P14902); assay: UV-Vis absorption study of ligand binding to IDO1 (Soret band); conditions: ligand 25 µM, IDO1 1 µM, pH 6.5; 414 nm without ligand
T1 construct: purchased Biovision P1096
T1 sequence (P14902 whole entry): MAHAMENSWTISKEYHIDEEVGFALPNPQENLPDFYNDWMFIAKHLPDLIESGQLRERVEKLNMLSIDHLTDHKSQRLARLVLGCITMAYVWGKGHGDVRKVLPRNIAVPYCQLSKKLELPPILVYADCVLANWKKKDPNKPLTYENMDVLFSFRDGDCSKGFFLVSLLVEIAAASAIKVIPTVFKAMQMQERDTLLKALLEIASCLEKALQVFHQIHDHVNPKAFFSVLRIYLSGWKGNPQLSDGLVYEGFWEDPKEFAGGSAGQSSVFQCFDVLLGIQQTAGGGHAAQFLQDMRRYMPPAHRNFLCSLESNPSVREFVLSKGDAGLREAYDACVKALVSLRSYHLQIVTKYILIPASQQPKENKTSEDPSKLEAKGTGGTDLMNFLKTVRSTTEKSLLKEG
Experimental: All the measurements of binding of compound and enzyme were recorded at room temperature using an Agilent Cary 8454 UV-Vis diode array spectrophotometer with 1 cm light path. The experiments were performed in 50 mM potassium phosphate buffer pH- 6.5 with IDO1 protein concentration of 1 µM and compound concentration of 25 µM was incubate for 3 h at 37°C. The deoxy-form of protein was prepared by pre-purged with nitrogen gas and adding […] (∼5 fold excess) in protein with potassium phosphate system.

[2] = Kinetic solubility; format: physicochemical; conditions: for solubility kinetic at 18 h: phosphate buffered saline, aqueous buffer, kinetic from dmso stock, at 1 mg/ml in phosphate buffer at pH 7.4, read-out: Kinetic solubility of the compounds
Text: (§1) For the DMPK studies of the compound 8a-d we used rat as well as human plasmas. Rat plasma was purchased from Hylasco Biotechnology Pvt. Ltd.™ Hyderabad, India. We have not performed any in vivo experiments for this manuscript neither for animals nor for humans. […] Also please note the blood plasma was obtained from the blood of Dr Srinivas R Maddi, who donated it and is the co-author of this article. The DMPK studies were supplemented by kinetic solubility, Log p and Log D determinations, PAMPA permeability, Metabolic and Plasma stability in rat and human, and finally the plasma folding in rat and human. A thorough discussion of each step is mentioned in the supplementary information. […]
Kinetic solubility: Solubility of the compounds was dete rmined by incubating the compound at 500
µM concentration in phosphate buffer saline, pH7.4 for 18 hours with constant vortex at 500 rpm.
After incubation period, samples were centrifuged and supernatant was injected into HPLC to
determine the solubility. […]

[3] = PAMPA permeability; format: in vitro ADME; conditions: for Papp at 5 h, 100 µM: phosphate buffer at pH 7.4
Text: as §1
PAMPA permeability: PAMPA permeability was determined by addition of the compounds to the donor wells at 100µM concentration in a total volume of 300µL in triplicates. The acceptor wells were filled with 200µL of phosphate buffered saline, pH 7.4, while maintaining 5% DMSO concentration on both sides. The plates were sandwiched and incubated for 5hours at room temperature. After incubation, 150µL of the sample from both donor and receiver wells was collected and centrifuged at […]
4000rpm for 20 minutes. […]

[4] = Metabolic stability in monkey liver microsomes; format: in vitro ADME
[5] = molecular target: T2, recombinant protein of human IDO1 enzyme (Homo sapiens, UniProt P14902); assay: IDO1 enzymatic assay in vitro (kynurenine formation, absorbance 492 nm); format: biochemical; conditions: for pIC50: read-out: IC50 against IDO1
T2 construct: purchased Biovision P1096
T2 sequence (P14902 whole entry): as above
Experimental: The recombinant human IDO/TDO protein were purchased from Biovision (Catalog no.: P1096 human recombinant IDO1 and CSB-YP023351HU human recombinant TDO2). All the other HPLC grade solvent were purchased from Merck Pvt. Ltd. The IDO/TDO assays were performed according to the reported procedures.1 and 2, the details of which is mentioned in the SI.
20 µL of IDO1/TDO2 protein (1µg/ml concentration) was added and incubates for 10 min. After that 20 µL of 2 mM L-tryptophan was added and then treated with different test compounds concentration […]
The plate was then sealed well for 2hr incubation process at 37°C. After incubation, 40 µL of 30% TCA solution was added and again incubated for 15 min at 60 °C, the samples were centrifuged for 15 min at 13000 rpm at 4 °C. The 100 µL of supernatant was transferred in fresh 96 well plate and treated with 100 µL of freshly prepared 2% Ehlrich reagent which was then analyzed by absorbance plate reader at 492 nm to measure the extent of kynurenine formation. The DMSO content in the sample was 0.005 %. The final concentration of the compound in deep well plate was 5 µM. The IC50 values were calculated in triplicate by using GraphPadPrism […]
1. Water was substituted with L-tryphtophan
2. Water was substituted with L-tryhtophan and rhIDO/ rhTDO protein.
A = IDO activity in presence of inhibitor

[6] = Stability in rat plasma; format: in vitro ADME
Text: as §1
Stability in rat and human plasma: Plasma stability is defined as the percentage of parent compound lost over time. The frozen plasma was thawed at room temperature and centrifuged at 1400 rpm 4 ℃, for 15 minutes. Approximately 90% of the clear supernatant fraction was transferred to a separate tube and was used for assay. The incubation mixtures consisted of human and rat palsma and compound (1 μM) or positive control (propanthelin, 1 μM) and incubated for 120 min at 37℃ in shaker with 500 rpm. All reactions were terminated using 200 μL of ice-cold acetonitrile containing internal standard (150 ng/mL of telmisartan) at 0, 15, 30, 60 and 120 min and centrifuged at 4000 rpm (Eppendorf, Germany) for 20min. The supernatants thus obtained were analyzed on LC-MS/MS to monitor the disappearance of compound. […]

[7] = Plasma protein binding in rat plasma (rapid equilibrium dialysis); format: in vitro ADME; conditions: for Rat plasma protein binding %Ge bound / Rat plasma protein binding %Ge free: 10 μM; for fraction unbound at 10 μM: pH 7.4
Text: as §1
(§2) Plasma protein binding in rat and human plasma: To evaluate the ability of compound to bind the plasma proteins, the most common approach of plasma protein binding using rapid equilibrium dialysis device ( RED inserts) used. Compounds were tested at a final concentration of 10 μM in mouse, rat and human plasma. An aliquot of 500 μL plasma containing compound 3k was added in first half (plasma side) of the well of RED device. An aliquot of 300 μL of 100 mM sodium phosphate buffer pH 7.4 was added in the second half (buffer side) of the Insert. The plate containing plasma and […]

[8] = Log P determination (octanol/water); format: physicochemical
Text: as §1
Octanol and buffer layers were analysed by HPLC -UV by
adjusting the needle height for each Octanol and buffer and the amount of compound distributed i nto

[9] = Plasma protein binding in human plasma (rapid equilibrium dialysis); format: in vitro ADME; conditions: pH 7.4, human plasma
Text: as §1, §2

[10] = Metabolic stability in rat liver microsomes; format: in vitro ADME; conditions: for Clearance in animal microsomes: animal microsomal data among rat, dog and monkey; for Rat liver microsomal stability % QH (hepatic extraction ratio): rat liver microsomes
Experimental: Metabolic stability in mouse, rat and human liver microsomes: Metabolic stability was defined as the percentage of parent compound lost over time in the presence of a metabolically active test system.
The incubation mixtures consisted of liver microsomes 1.0 mg microsomal protein /mL , compound 1 uM or positive control verapamil, 1 uM . The reactions were initiated by adding 1 mM NADPH.
Reactions without NADPH at 0 and 60 min were also incubated to rule out non-NADPH metabolism or chemical instability in the incubation buffer. All reactions were terminated using 200 uL of ice-cold acetonitrile containing internal standard 200 ng/mL of telmisartan at 0, 5, 15, 30 and 60 min. The vials were centrifuged at 4000 rpm for 20 min. The supernatants thus obtained were analyzed on LC-MS/MS to monitor the disappearance of compound. […]

[11] = Metabolic stability in dog liver microsomes; format: in vitro ADME
[12] = 10 μM, read-out: Human plasma protein binding %Ge bound (converted)
[13] = 10 μM, read-out: Human plasma protein binding %Ge free
[14] = read-out: Fraction unbound in human plasma
[15] = recombinant human IDO1, dose response study

Row | Soret band of deoxy ferrous-IDO1 in presence of ligand [1] | Solubility [2] | solubility kinetic at 18 h [2] | Permeability [3] | Papp at 5 h, 100 µM [3] | Monkey liver microsomal stability % QH (hepatic extraction ratio) [4] | Rat plasma stability %Ge remaining after 120 min [6] | Rat plasma protein binding %Ge bound [7] | Rat plasma protein binding %Ge free [7] | fraction unbound at 10 μM [7] | logP [8] | fraction unbound at 10 μM [9, 12] | fraction unbound at 10 μM [9, 13] | fraction unbound at 10 μM [9, 14] | Clearance in animal microsomes [10] | Rat liver microsomal stability % QH (hepatic extraction ratio) [10] | Dog liver microsomal stability % QH (hepatic extraction ratio) [11] | pIC50 [5, 15] | SMILES | also measured
1 | 407 nm | very good | 56.9 µg/mL (≈ 162 µM) | very good | 15.4 ×10⁻⁶ cm/s | 74% | 91.3% | 82.1% | 17.9% | 0.179 | 2.67 | 0.0952 | 0.0952 | 0.095 | low to moderate clearance | 2.2% | 39% |  | CC(=O)NCCc1c(C(=O)c2ccc([N+](=O)[O-])cc2)[nH]c2ccccc12 [8d] | Selectivity for IDO over TDO ([5]; IDO vs TDO): reasonable selectivity; pIC50 ([5]; recombinant human IDO1): 6.74
2 | 407 nm | very good | 67.4 µg/mL (≈ 209 µM) | very good | 32.3 ×10⁻⁶ cm/s | 96% | 96.3% | 95.9% | 4.1% | 0.041 | 2.88 | 0.0213 | 0.0213 | 0.021 | low to moderate clearance | 14.9% | 67% | 5.82 | COC(=O)NCCc1c(C(=O)c2ccccc2)[nH]c2ccccc12 [8e] | 
3 | 407 nm and 430 nm | very good | 64.1 µg/mL (≈ 145 µM) | very good | 6.8 ×10⁻⁶ cm/s | 97% | 84.5% | 97.3% | 2.7% | 0.027 | > 3.5 | 0.0064 | 0.0064 | 0.0064 |  | 12.6% | 69% | 5.84 | CC(=O)NCCc1c(C(=O)c2cc(C(F)(F)F)cc(C(F)(F)F)c2)[nH]c2ccccc12 [8a] | Percentage inhibition of IDO1 ([5]; 5 μM concentration of compound, 5 µM): 37%; inhibition at 5 µM ([5]; 5 μM concentration of compound, read-out: Percentage inhibition of IDO1): ~40%

Reference: PMC8319603, “Developing C2-Aroyl Indoles as Novel Inhibitors of IDO1 and Understanding Their Mechanism of Inhibition via Mass Spectroscopy, QM/MM Calculations and Molecular Dynamics Simulation” (Frontiers in Chemistry, 2021)
